Source: patent US11766416B2, “Compositions of β-aminoisobutyric acid and methods for use thereof” (Nanjing Nutrabuilding Bio-tech Co., Ltd., priority 2020, dated 2023)

Tests used:
Format in all cases: in vivo, C57BL/6 male mice
[1] = Weekly blood glucose level (tail vein, glucometer)
Method: (§1) 36 C57BL/6 male mice aged about 8 weeks, each having a body mass of approximately 21 g, were randomly assigned to six study groups (GA1, GA2, GB1, GB2, GB3, and GB4) of six mice each. Each animal's body weight is measured by a weight scale and recorded.
(§2) The total experimental time is 16 weeks, divided into two periods: an eight-week induction period and an eight-week treatment period. […]
(§3) Throughout the study described in Example 1, glucose levels in each mouse's blood were measured weekly (week 9-16) on the starting day of every week, before the day's exercise and L-BAIBA dosing activities. […] Blood glucose levels were monitored pre-dose and at 15, 30, 60 and 120 minutes after administration of the glucose solution. […] The area under the curve (AUC) was calculated and expressed as percentage values.

[2] = Serum insulin and leptin by ELISA (insulin and leptin resistance); details: HFD-fed obese mice, 150 mg/kg/day oral, end of study, relative to same HFD, with or without exercise, without L-BAIBA
Method: as §1
(§4) The total experimental time is 16 weeks, divided into two periods: an eight-week induction period and an eight-week treatment period.
(§5) Each study group consisted of 6 animals, and treatment details of the individual study groups are given below: • Group A1 (GA1): Normal mice, maintained on a normal diet (ND) for 8 weeks, receiving neither exercise nor L-BAIBA treatment. • Group A2 (GA2): Normal mice, maintained on a normal diet (ND) for 8 weeks, receiving only L-BAIBA treatment and no exercise. • Group B1 (GB1): Obese mice, maintained on a high-fat diet (HFD) for 8 weeks, receiving neither exercise nor L-BAIBA treatment. • Group B2 (GB2): Obese mice, maintained on HFD for 8 weeks, receiving only exercise and no L-BAIBA treatment. • Group B3 (GB3): Obese mice, maintained on HFD for 8 weeks, receiving only L-BAIBA treatment and no exercise. • Group B4 (GB4): Obese mice, maintained on HFD for 8 weeks, receiving both L-BAIBA treatment and exercise. […]
At the end of the study described in Example 1, serum levels of insulin and leptin were quantified in all treatment groups by standard ELISA methods. […]

[3] = Oral glucose tolerance test (OGTT) on day 113; details: HFD-fed obese mice, 150 mg/kg/day oral, day 113, glucose 2 g/kg oral; relative to same HFD, with or without exercise, without L-BAIBA; FIGS. 6A-7
Method: as §1, §2, §3

[4] = Muscular (soleus) and hepatic glycogen content at end of study; details: HFD-fed obese mice, 150 mg/kg/day oral, relative to same HFD, with or without exercise, without L-BAIBA
Method: as §1, §4
(§6) Each study group consisted of 6 animals, and treatment details of the individual study groups are given below: • Group A1 (GA1): Normal mice, maintained on a normal diet (ND) for 8 weeks, receiving neither exercise nor L-BAIBA treatment. • Group A2 (GA2): Normal mice, maintained on a normal diet (ND) for 8 weeks, receiving only L-BAIBA treatment and no exercise. • Group B1 (GB1): Obese mice, maintained on a high-fat diet (HFD) for 8 weeks, receiving neither exercise nor L-BAIBA treatment. • Group B2 (GB2): Obese mice, maintained on HFD for 8 weeks, receiving only exercise and no L-BAIBA treatment. • Group B3 (GB3): Obese mice, maintained on HFD for 8 weeks, receiving only L-BAIBA treatment and no exercise. • Group B4 (GB4): Obese mice, maintained on HFD for 8 weeks, receiving both L-BAIBA treatment and exercise.
Animals receiving L-BAIBA received, via oral administration, 150 mg/kg body weight of L-BAIBA, dissolved in 10 mL/kg body weight of ultrapure water, per day. […]

[5] = Body weight of high-fat diet obese mice, measured weekly; details: 150 mg/kg/day oral
Method: as §1, §4, §5
Throughout the study period, each mouse's body weight was measured weekly by a calibrated electronic digital weighing balance Sartorious BSA32025 (Sartorious AG, Göttingen, Germany). […]

[6] = Blood metabolism-related biomarkers (TG, TCHO, LDL, VLDL) at end of study; details: HFD-fed obese mice, 150 mg/kg/day oral, relative to same HFD, with or without exercise, without L-BAIBA
Method: as §1, §4, §6
Animals receiving L-BAIBA received, via oral administration, 150 mg/kg body weight of L-BAIBA, dissolved in 10 mL/kg body weight of ultrapure water, per day. Animals not receiving L-BAIBA were administered 10 mL/kg body weight of ultrapure water per day. All animals were maintained in a pathogen-free condition under a strict 12-hour alternate light/dark cycle with 12-15 cycles/hour of air exchange. All animals were provided with access to their respective feeds and water ad libitum. All animals were housed under controlled laboratory conditions of temperature and humidity at 23±2° C. and 50±10% RH.
At the end of the study described in Example 1, blood was collected from all test groups and various clinical parameters/biomarkers related to metabolism were determined: triglyceride (TG), total cholesterol (TCHO), low-density lipoprotein (LDL) and very low-density lipoprotein (VLDL).

Structure (SMILES): C[C@@H](CN)C(=O)O [L-BAIBA, L-β-aminoisobutyric acid]
- blood glucose level of obese mice over the experimental period ([1]; HFD obese mice, 150 mg/kg/day oral, weeks 9-16, compared with normal mice (GA1)): stable level, close to the level of normal mice (GA1)
- blood glucose level ([1]; mice receiving 150 mg/kg/day oral, weekly weeks 9-16, GB3 and GB4 relative to GB1 and GB2, FIGS. 5A, 5B): greater reduction in blood glucose level
- insulin resistance (serum insulin) ([2]; FIG. 4A): improved
- leptin resistance (serum leptin) ([2]; FIG. 4B): improved leptin resistance
- glucose tolerance (OGTT) [3]: better glucose tolerance
- hepatic glycogen content ([4]; liver main lobe, FIG. 3A): higher
- muscular glycogen content ([4]; soleus muscle, FIG. 3B): higher
- body weight, GB3 relative to GB1 and GB2 ([5]; HFD obese mice, L-BAIBA only, no exercise (GB3), vs untreated (GB1) and exercise only (GB2), FIG. 1): reduced body weight
- body weight ([5]; HFD-fed obese mice, 8-week treatment, with or without exercise, relative to same HFD without L-BAIBA): greater reduction in body weight
- blood triglyceride (TG) ([6]; FIG. 2A): lower levels
- blood total cholesterol (TCHO) ([6]; FIG. 2B): lower levels
- blood low-density lipoprotein (LDL) ([6]; FIG. 2C): lower levels
- blood very low-density lipoprotein (VLDL) ([6]; FIG. 2D): lower levels
